According to patent US6313170A, “L-threonate ferrous, as well as pharmaceutical composition and use for improving and treating human anemia thereof” (priority 1997, dated 2001):
Where two headings read alike, the source gives them in different places.

Conditions: rat, in vivo, po, 72 h
Description: Its chemical formula is Fe(C4 H7 O5)2.2H2 O, molecular weight:362.
Animals: Male Wistar rats were supplied by Experimental Animal Center, Tumor Institute of Heilongjian Province with body weight of 140 g-180 g. The iron-low diet contains iron 0.9 mg/kg.
50 rats were randomly divided into 5 groups of [19] 10 rats each. On this basis of administration of iron-low diet, each group of rats was administered respectively by gavage according to the dosage below:
High dosage group: Fe, 5 mg/kg, ferrous L-threonate, 32.32 mg/kg;
Middle dosage group: Fe, 2.5 mg/kg, ferrous L-threonate, 16.16 mg/kg;
Low dosage group: Fe, 1.0 mg/kg, ferrous L-threonate, 6.46 mg/kg;
Positive drug control group (ferrous sulfate): Fe, 2.5 mg/kg, ferrous sulfate, 12.43 mg/kg;
Negative drug control group (iron-low diet): Fe, 0.9 mg/kg (measured value).
After the end of 7 days feeding normal diet period, rats were supplemented with iron-low diet prepared according to AOAC formula for another 7 days. The 1-3 groups were treatment groups and supplemented with ferrous L-threonate 32.32 mg/kg (5 mgFe/kg, high dose group), 16.16 mg/kg (2.5 mg Fe/kg, middle dose group) and 6.46 mg/kg (1.0 mg Fe/kg, low dose group), respectively. The forth, positive drug control group, was provided with ferrous sulfate 12.43 mg/kg (2.5 mg Fe/kg). The fifth was model control group and was offered with iron-low diet (0.9 mg Fe/kg). Each groups were arranged to take drug one time by I.G (gavage) method per day and in the same time were supplemented with deionized water.
The test was sustained three days. Each rat's excrement was collected, dried at temperature 80-90° C., weighed and ground into 40-60 meshes. About 0.5 to 0.6 gram sample was taken and a mixture of nitric acid and perchloric acid at a ratio of 4:1 was added therein until completion of digestion. The constant volume is 10 ml. The iron content of excrement was determined by atomic absorption method and the iron absorptive rate for each rat can be calculated by the formula listed below. [formula]

With ferrous L-threonate as the substance, how does the Absorptivity (1 mg/kg) read?
The Absorptivity was 59.10 ± 5.01%.

And the Absorptivity (2.5 mg/kg)?
Its Absorptivity is 54.90 ± 4.08%.

And the Absorptivity (5 mg/kg)?
Its Absorptivity is 42.60 ± 1.79%.
